{"source": "patent US20030077645A1", "about": "“Superfamily receptor chimeras, translocation assay for superfamily receptor ligands, and methods and kits for detecting and characterizing receptor ligands” (priority 2001, published 2003)", "key": {"GFP-GR-RAR": {"test_system": "GFP-GR-RAR", "settings": "100 nM ligand, 1 hour, mouse mammary adenocarcinoma cells", "method": "(§1) Fluorescence Microscopy. For fluorescence microscopy, cells were electroporated with 2 ug GFP-GR-RAR, GFP-GR, or GFP-RAR. […] GFP was excited with a 488 nm laser lines supplied from a air cooled argon laser. GFP emission was monitored between 505 and 590 nm with a pinhole setting of 1.0.\n(§2) FIG. 3 is a series of photographs which depict subcellular trafficking of chimeric receptor. Mouse mammary adenocarcinoma cells were transfected with GFP-GR-RAR (panels A, B, C), GFP-GR (panels D, E, F), or GFP-RAR (panels G, H, I)."}, "GFP-RAR (wild type RAR)": {"target": "T1, GFP-RAR (wild type RAR) (Homo sapiens, UniProt P10276)", "T1 sequence (P10276 1-462)": "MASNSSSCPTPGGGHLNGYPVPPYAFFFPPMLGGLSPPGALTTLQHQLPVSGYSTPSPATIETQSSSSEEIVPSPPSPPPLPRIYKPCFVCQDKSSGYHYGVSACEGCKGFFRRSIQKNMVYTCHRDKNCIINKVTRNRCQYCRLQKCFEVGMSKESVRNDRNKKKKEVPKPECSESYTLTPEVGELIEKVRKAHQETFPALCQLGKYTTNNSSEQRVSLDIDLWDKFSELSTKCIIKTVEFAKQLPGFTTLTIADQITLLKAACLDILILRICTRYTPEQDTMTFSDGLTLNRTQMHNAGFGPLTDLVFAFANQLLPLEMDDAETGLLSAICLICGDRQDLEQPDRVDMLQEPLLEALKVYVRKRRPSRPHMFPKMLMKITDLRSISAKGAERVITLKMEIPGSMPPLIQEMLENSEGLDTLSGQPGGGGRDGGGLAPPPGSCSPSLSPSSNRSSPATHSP", "settings": "100 nM ligand, 1 hour, mouse mammary adenocarcinoma cells", "method": "as §1, §2"}, "GR-RAR chimera": {"test_system": "GR-RAR chimera", "settings": "100 nM ATRA, 6 hours", "description": "(§3) The 1471.1 cell line was used for this transfection study. Cells were maintained in DMEM with 10% characterized fetal calf serum, L-glutamine, and antibiotics. For transient transfections, 2×10^5 cells were resuspended in cold DMEM without serum with the indicated plasmids and incubated on ice for 1 minute. Electroporations were done in an electroporator at 140 V, 3 pulses and 10 msec pulse length followed by a 10 minute recovery on ice. Cells were then plated and allowed to recover overnight in complete media.\n(§4) Assay of Receptor Activity. Cells were electroporated with 5 ug pLTRLuc, containing the MMTV LTR, and 0.7 ug pCMV-betaGal with or without 10 ug of the indicated receptor expression vector as described above. Cells were plated in duplicate in 100 mm dishes in DMEM containing 10% charcoal/dextran-treated FCS, as described above, and allowed to recover overnight. The next day, cells were treated with the indicated ligand for 6 hours.\n(§5) Transfected cells were treated with the indicated ligand for 6 hours. Fold inductions are shown in the bottom table, and were calculated from the luciferase activity, normalized to beta-galactosidase activity, of ligand induced samples compared to untreated controls."}, "Endogenous GR": {"target": "T2, Endogenous GR (Mus musculus, UniProt P06537)", "T2 sequence (P06537 1-792)": "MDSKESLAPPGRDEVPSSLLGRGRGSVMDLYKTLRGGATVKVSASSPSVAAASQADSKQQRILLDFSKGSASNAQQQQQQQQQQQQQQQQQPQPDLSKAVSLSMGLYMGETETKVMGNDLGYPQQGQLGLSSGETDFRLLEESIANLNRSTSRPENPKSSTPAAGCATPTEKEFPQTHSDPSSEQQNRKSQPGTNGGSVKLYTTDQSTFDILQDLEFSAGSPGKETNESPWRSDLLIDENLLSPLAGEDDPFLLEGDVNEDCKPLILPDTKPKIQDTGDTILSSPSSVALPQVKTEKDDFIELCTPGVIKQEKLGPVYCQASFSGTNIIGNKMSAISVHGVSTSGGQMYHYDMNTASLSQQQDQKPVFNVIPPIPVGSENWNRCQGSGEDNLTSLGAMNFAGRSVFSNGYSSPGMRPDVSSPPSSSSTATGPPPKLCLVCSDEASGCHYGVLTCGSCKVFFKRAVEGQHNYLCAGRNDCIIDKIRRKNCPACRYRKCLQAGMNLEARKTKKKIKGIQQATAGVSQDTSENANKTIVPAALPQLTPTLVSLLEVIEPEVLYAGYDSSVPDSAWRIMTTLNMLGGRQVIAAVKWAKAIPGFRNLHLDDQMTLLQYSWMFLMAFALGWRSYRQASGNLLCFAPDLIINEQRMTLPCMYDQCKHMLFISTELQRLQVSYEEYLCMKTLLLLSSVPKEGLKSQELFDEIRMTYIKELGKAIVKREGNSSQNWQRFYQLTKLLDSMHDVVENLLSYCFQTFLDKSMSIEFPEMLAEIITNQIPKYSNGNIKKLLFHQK", "test": "cell-based", "settings": "read-out: Fold induction (luciferase activity normalized to beta-galactosidase activity, vs untreated control)", "description": "as §3, §4, §5"}}}
{"compound": "CC1=C(/C=C/C(C)=C/C=C/C(C)=C/C(=O)O)C(C)(C)CCC1", "note": "[ATRA, all-trans retinoic acid]", "values": [{"measurement": "Subcellular distribution of GR-RAR in response to ligand", "setting": "GFP-GR-RAR", "value": "translocated to the nucleus"}, {"measurement": "Subcellular distribution of wild type RAR in response to ligand", "setting": "GFP-RAR (wild type RAR)", "value": "always nuclear"}, {"measurement": "Fold induction (luciferase activity normalized to beta-galactosidase activity, vs untreated control)", "setting": "GR-RAR chimera", "value": 18.6}, {"measurement": "fold induction at 0.1 µM", "setting": "Endogenous GR", "value": 1.27}]}
